# Laboratory results as given in PubChem BioAssay AID1963841 (Molecular Pharmacology Branch, DTP, NCI, 2024).
# System: 439559-082-T-J2-PDC spheroid viability
# Assay: Anticancer human tumor 439559-082-T-J2-PDC patient-derived colon adenocarcinoma cell line growth inhibition [POLQ]
# Conditions: spheroids with HUVEC and MSC; for IC50: curve of first compound; for viability, T/C: stronger effect = lower value
# Method in brief: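 PDC + HUVEC + MSC complex spheroids; POLQ inhibitors ± partner drugs; top conc. at/near clinical Cmax, else 10 microM (SN-38 1 microM), half-log dilutions; 37 degrees C, 5% CO2.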
# [1] = second compound 0.0316 µM, first compound 0.0316 µM
# [2] = second compound 0.0316 µM, first compound 0.1 µM
# [3] = second compound 0.0316 µM, first compound 0.316 µM
# [4] = second compound 0.0316 µM, first compound 1 µM
# [5] = second compound 0.0316 µM, first compound 3.16 µM
# [6] = second compound 0.0316 µM, first compound 10 µM
# [7] = second compound 0.1 µM, first compound 0.0316 µM
# [8] = second compound 0.1 µM, first compound 0.1 µM
# [9] = second compound 0.1 µM, first compound 0.316 µM
# [10] = second compound 0.1 µM, first compound 1 µM
# [11] = second compound 0.1 µM, first compound 3.16 µM
# [12] = second compound 0.1 µM, first compound 10 µM
# [13] = second compound 0.316 µM, first compound 0.0316 µM
# [14] = second compound 0.316 µM, first compound 0.1 µM
# [15] = second compound 0.316 µM, first compound 0.316 µM
# [16] = second compound 0.316 µM, first compound 1 µM
# [17] = second compound 0.316 µM, first compound 3.16 µM
# [18] = second compound 0.316 µM, first compound 10 µM
# [19] = second compound 1 µM, first compound 0.0316 µM
# [20] = second compound 1 µM, first compound 0.1 µM
# [21] = second compound 1 µM, first compound 0.316 µM
# [22] = second compound 1 µM, first compound 1 µM
# [23] = second compound 1 µM, first compound 3.16 µM
# [24] = second compound 1 µM, first compound 10 µM
# [25] = second compound 3.16 µM, first compound 0.0316 µM
# [26] = second compound 3.16 µM, first compound 0.1 µM
# [27] = second compound 3.16 µM, first compound 0.316 µM
# [28] = second compound 3.16 µM, first compound 1 µM
# [29] = second compound 3.16 µM, first compound 3.16 µM
# [30] = second compound 3.16 µM, first compound 10 µM
# [31] = second compound 10 µM, first compound 0.0316 µM
# [32] = second compound 10 µM, first compound 0.1 µM
# [33] = second compound 10 µM, first compound 0.316 µM
# [34] = second compound 10 µM, first compound 1 µM
# [35] = second compound 10 µM, first compound 3.16 µM
# [36] = second compound 10 µM, first compound 10 µM
# 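Also: spheroids exposed to compounds for seven days before readout.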
# 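For viability, T/C in this document: 100% = DMSO vehicle control viability.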
compound,measurement,setting,value
COc1cc(C2c3cc4c(cc3C(OC3OC5COC(C)OC5C(O)C3O)C3COC(=O)C23)OCO4)cc(OC)c1O (centres undefined) + Cc1cccc(N(C)C(=O)C2C(O)CCN2c2nc(C)cc(C(F)(F)F)c2C#N)c1,IC50,second compound 0.0316 µM,> 10 µM
same,IC50,second compound 0.1 µM,> 10 µM
same,IC50,second compound 0.316 µM,> 10 µM
same,IC50,second compound 1 µM,> 10 µM
same,IC50,second compound 3.16 µM,> 10 µM
same,IC50,second compound 10 µM,> 10 µM
same,"viability, T/C",[1],90.7%
same,"viability, T/C",[2],99.6%
same,"viability, T/C",[3],95.6%
same,"viability, T/C",[4],95.3%
same,"viability, T/C",[5],76.8%
same,"viability, T/C",[6],68.8%
same,"viability, T/C",[7],103%
same,"viability, T/C",[8],101%
same,"viability, T/C",[9],98.1%
same,"viability, T/C",[10],89.8%
same,"viability, T/C",[11],83.4%
same,"viability, T/C",[12],79.1%
same,"viability, T/C",[13],96.9%
same,"viability, T/C",[14],92.4%
same,"viability, T/C",[15],95.2%
same,"viability, T/C",[16],88.2%
same,"viability, T/C",[17],82.1%
same,"viability, T/C",[18],69.1%
same,"viability, T/C",[19],108%
same,"viability, T/C",[20],90.8%
same,"viability, T/C",[21],93.5%
same,"viability, T/C",[22],90.4%
same,"viability, T/C",[23],84.2%
same,"viability, T/C",[24],73.4%
same,"viability, T/C",[25],90.9%
same,"viability, T/C",[26],102%
same,"viability, T/C",[27],90.8%
same,"viability, T/C",[28],83.3%
same,"viability, T/C",[29],82.1%
same,"viability, T/C",[30],70.6%
same,"viability, T/C",[31],92.4%
same,"viability, T/C",[32],82.5%
same,"viability, T/C",[33],95.4%
same,"viability, T/C",[34],86.8%
same,"viability, T/C",[35],71%
same,"viability, T/C",[36],59.9%
COc1ccc([C@@H](O)c2cc(-c3ncnc4cc(N5CCOCC5)ccc34)c(F)cc2Cl)nn1 + Nc1ccc(C#CCN(C(=O)Cc2ncc(C(F)(F)F)cc2C(F)(F)F)c2ccc(F)cc2)nn1,IC50,second compound 0.0316 µM,> 10 µM
same,IC50,second compound 0.1 µM,> 10 µM
same,IC50,second compound 0.316 µM,> 10 µM
same,IC50,second compound 1 µM,> 10 µM
same,IC50,second compound 3.16 µM,> 10 µM
same,IC50,second compound 10 µM,> 10 µM
same,"viability, T/C",[1],105%
same,"viability, T/C",[2],86%
same,"viability, T/C",[3],89.1%
same,"viability, T/C",[4],89.4%
same,"viability, T/C",[5],84%
same,"viability, T/C",[6],87.5%
same,"viability, T/C",[7],102%
same,"viability, T/C",[8],93.2%
same,"viability, T/C",[9],92.7%
same,"viability, T/C",[10],88.1%
same,"viability, T/C",[11],78%
same,"viability, T/C",[12],87.3%
same,"viability, T/C",[13],119%
same,"viability, T/C",[14],105%
same,"viability, T/C",[15],104%
same,"viability, T/C",[16],79.5%
same,"viability, T/C",[17],88.9%
same,"viability, T/C",[18],81%
same,"viability, T/C",[19],95%
same,"viability, T/C",[20],106%
same,"viability, T/C",[21],85.2%
same,"viability, T/C",[22],83.7%
same,"viability, T/C",[23],86.1%
same,"viability, T/C",[24],86.3%
same,"viability, T/C",[25],90.1%
same,"viability, T/C",[26],107%
same,"viability, T/C",[27],90.7%
same,"viability, T/C",[28],80.2%
same,"viability, T/C",[29],83.7%
same,"viability, T/C",[30],87.8%
same,"viability, T/C",[31],94.1%
same,"viability, T/C",[32],90%
same,"viability, T/C",[33],90.1%
same,"viability, T/C",[34],99.7%
same,"viability, T/C",[35],81.8%
same,"viability, T/C",[36],77.4%
